For 5 compounds, MIC results are on record in ChEMBL document CHEMBL3817825, “Synthesis and biological evaluation of Schiff base-linked imidazolyl naphthalimides as novel potential anti-MRSA agents” (2016).

Converted amounts (≈) assume the structure as drawn.

Assay [1] concerns Staphylococcus aureus. Briefly: Antibacterial activity against Staphylococcus aureus ATCC25923 after 24 hrs by two fold serial dilution method. Particulars: ATCC25923, 24 h. Format: functional.
Another assay deals with Pseudomonas aeruginosa. Nature of the assay: Antibacterial activity against Pseudomonas aeruginosa ATCC27853 after 24 hrs by two fold serial dilution method. The class given is functional. Particulars: ATCC27853, 24 h.
In another assay the test system is Saccharomyces cerevisiae. Nature of the assay: Antifungal activity against Beer yeast ATCC9763 after 24 hrs by two fold serial dilution method. Particulars: ATCC9763, 24 h. The class given is functional.
The next assay deals with Aspergillus flavus. Briefly: Antifungal activity against Aspergillus flavus ATCC204304 after 24 hrs by two fold serial dilution method. The class given is functional. The note with it: ATCC204304, 24 h.
In assay [2] the test system is Escherichia coli. Nature of the assay: Antibacterial activity against Escherichia coli JM109 after 24 hrs by two fold serial dilution method. Format: functional. The note with it: JM109, 24 h.
A further assay relates to Micrococcus luteus. Nature of the assay: Antibacterial activity against Micrococcus luteus ATCC4698 after 24 hrs by two fold serial dilution method. Particulars: ATCC4698, 24 h. The class given is functional.
The test system of a further assay is Candida. Nature of the assay: Antifungal activity against Candida mycoderma ATCC10231 after 24 hrs by two fold serial dilution method. The class given is functional. Particulars: ATCC10231, 24 h.
For another assay, the system named is Candida albicans. Briefly: Antifungal activity against Candida albicans ATCC76615 after 24 hrs by two fold serial dilution method. The class given is functional. The note with it: ATCC76615, 24 h.
Another assay deals with Bacillus subtilis. Nature of the assay: Antibacterial activity against Bacillus subtilis ATCC6633 after 24 hrs by two fold serial dilution method. The class given is functional. Particulars: ATCC6633, 24 h.
In assay [3] the test system is Staphylococcus aureus. Briefly: Antibacterial activity against methicillin-resistant Staphylococcus aureus N315 after 24 hrs by two fold serial dilution method. The note with it: N315, 24 h. Format: functional.
Another assay deals with Bacillus. Nature of the assay: Antibacterial activity against Bacillus proteus ATCC13315 after 24 hrs by two fold serial dilution method. Format: functional. Particulars: ATCC13315, 24 h.
The subject of assay [4] is Escherichia coli. Briefly: Antibacterial activity against Escherichia coli DH52 after 24 hrs by two fold serial dilution method. The class given is functional. Particulars: DH52, 24 h.
Another assay concerns Shigella dysenteriae. Nature of the assay: Antibacterial activity against Shigella dysenteriae after 24 hrs by two fold serial dilution method. Format: functional.
For the next assay, the system named is Salmonella typhi. Nature of the assay: Antibacterial activity against Bacillus typhi after 24 hrs by two fold serial dilution method. The note with it: Salmonella enterica. Format: functional, Salmonella enterica subsp. enterica serovar Typhi.
The test system of another assay is Cyberlindnera jadinii. Briefly: Antifungal activity against Candida utilis ATCC9950 after 24 hrs by two fold serial dilution method. The class given is functional. The note with it: Williopsis jadinii, ATCC9950, 24 h.

On to `CCCCc1nc(Cl)c(/C=N/N2C(=O)c3cccc4c(N5CCOCC5)ccc(c34)C2=O)n1Cc1ccc(Cl)cc1Cl`, for which the MIC (in general, the smallest concentration in the dilution series that meets the test's criterion for growth inhibition) against Staphylococcus aureus [1] was 180 µM (≈ 112 µg/mL); against Pseudomonas aeruginosa, 180 µM (≈ 112 µg/mL); with Saccharomyces cerevisiae it was 370 µM (≈ 231 µg/mL); in the assay on Aspergillus flavus, 180 µM (≈ 112 µg/mL); in the assay on Escherichia coli [2], 370 µM (≈ 231 µg/mL); against Micrococcus luteus it was 180 µM (≈ 112 µg/mL). The MIC against Candida is 370 µM (≈ 231 µg/mL); against Candida albicans it was 370 µM (≈ 231 µg/mL); against Bacillus subtilis, 370 µM (≈ 231 µg/mL); with Staphylococcus aureus [3], 370 µM (≈ 231 µg/mL); against Bacillus, 370 µM (≈ 231 µg/mL); against Escherichia coli [4], 740 µM (≈ 462 µg/mL). For the same compound, the minimal inhibitory concentration (MIC) with Shigella dysenteriae was found to be 0.37 µM (≈ 0.231 µg/mL); against Salmonella typhi, 0.37 µM (≈ 0.231 µg/mL); with Cyberlindnera jadinii, 180 µM (≈ 112 µg/mL).

`CCCCc1nc(Cl)c(/C=N/N2C(=O)c3cccc4c(N5CCCC5)ccc(c34)C2=O)[nH]1`: the MIC in the assay with Staphylococcus aureus [1] is 570 µM (≈ 256 µg/mL); against Pseudomonas aeruginosa it was 570 µM (≈ 256 µg/mL); with Saccharomyces cerevisiae it was 570 µM (≈ 256 µg/mL); in the assay on Aspergillus flavus it was 570 µM (≈ 256 µg/mL); against Escherichia coli [2], 280 µM (≈ 126 µg/mL); against Micrococcus luteus, 280 µM (≈ 126 µg/mL). Besides, the MIC worked out at 140 µM (≈ 63 µg/mL) with Candida; 140 µM (≈ 63 µg/mL) with Candida albicans; 570 µM (≈ 256 µg/mL) in the assay with Bacillus subtilis; 280 µM (≈ 126 µg/mL) with Staphylococcus aureus [3]; 570 µM (≈ 256 µg/mL) in the assay with Bacillus; 280 µM (≈ 126 µg/mL) with Escherichia coli [4]. For the same compound, the MIC in the assay with Shigella dysenteriae was determined as 0.57 µM (≈ 0.256 µg/mL); in the assay on Salmonella typhi, 0.57 µM (≈ 0.256 µg/mL); in the assay on Cyberlindnera jadinii it was 280 µM (≈ 126 µg/mL).

Take `CCCCc1nc(Cl)c(/C=N/N2C(=O)c3cccc4c(N5CCOCC5)ccc(c34)C2=O)n1Cc1ccc(C)cc1`: the minimum inhibitory concentration (MIC) worked out at 220 µM (≈ 125 µg/mL) against Staphylococcus aureus [1]; 450 µM (≈ 257 µg/mL) in the assay with Pseudomonas aeruginosa; 450 µM (≈ 257 µg/mL) against Saccharomyces cerevisiae; 900 µM (≈ 513 µg/mL) with Aspergillus flavus; 60 µM (≈ 34.2 µg/mL) in the assay with Escherichia coli [2]; 450 µM (≈ 257 µg/mL) in the assay with Micrococcus luteus. The MIC against Candida was determined as 900 µM (≈ 513 µg/mL); in the assay with Candida albicans it was 450 µM (≈ 257 µg/mL); against Bacillus subtilis, 890 µM (≈ 507 µg/mL); against Staphylococcus aureus [3] it was 450 µM (≈ 257 µg/mL); in the assay on Bacillus it was 450 µM (≈ 257 µg/mL); with Escherichia coli [4], 890 µM (≈ 507 µg/mL). Also, the MIC against Shigella dysenteriae stood at 0.11 µM (≈ 0.0627 µg/mL); in the assay on Salmonella typhi, 0.45 µM (≈ 0.257 µg/mL); in the assay on Cyberlindnera jadinii, 110 µM (≈ 62.7 µg/mL).

Regarding `CCCCCCCn1c(CCCC)nc(Cl)c1/C=N/N1C(=O)c2cccc3c(N4CCOCC4)ccc(c23)C1=O`, the MIC against Staphylococcus aureus [1], in the assay with Pseudomonas aeruginosa, against Saccharomyces cerevisiae, against Aspergillus flavus, in the assay with Escherichia coli [2] and in the assay on Micrococcus luteus was 450 µM (≈ 254 µg/mL) in each case. In addition, the MIC turned out to be 450 µM (≈ 254 µg/mL) against Candida; 230 µM (≈ 130 µg/mL) against Candida albicans; 450 µM (≈ 254 µg/mL) in the assay with Bacillus subtilis; 450 µM (≈ 254 µg/mL) in the assay with Staphylococcus aureus [3]; 450 µM (≈ 254 µg/mL) in the assay with Bacillus; 450 µM (≈ 254 µg/mL) in the assay with Escherichia coli [4]. Besides, the MIC against Shigella dysenteriae stood at 0.91 µM (≈ 0.513 µg/mL); with Salmonella typhi it was 0.45 µM (≈ 0.254 µg/mL); against Cyberlindnera jadinii, 450 µM (≈ 254 µg/mL).

Regarding `CCCCc1nc(Cl)c(/C=N/N2C(=O)c3cccc4c(N5CCOCC5)ccc(c34)C2=O)n1Cc1ccccc1Cl`, the MIC with Staphylococcus aureus [1] was determined as 870 µM (≈ 514 µg/mL); against Pseudomonas aeruginosa, 870 µM (≈ 514 µg/mL); with Saccharomyces cerevisiae it was 430 µM (≈ 254 µg/mL); against Aspergillus flavus, 220 µM (≈ 130 µg/mL); with Escherichia coli [2], 110 µM (≈ 65 µg/mL); against Micrococcus luteus, 870 µM (≈ 514 µg/mL). Besides, the minimum inhibitory concentration (MIC) against Candida is 870 µM (≈ 514 µg/mL); in the assay on Candida albicans, 430 µM (≈ 254 µg/mL); in the assay on Bacillus subtilis, 430 µM (≈ 254 µg/mL); with Staphylococcus aureus [3] it was 430 µM (≈ 254 µg/mL); in the assay with Bacillus it was 430 µM (≈ 254 µg/mL); with Escherichia coli [4], 870 µM (≈ 514 µg/mL). Further, the MIC against Shigella dysenteriae turned out to be 0.22 µM (≈ 0.13 µg/mL); in the assay with Salmonella typhi, 0.43 µM (≈ 0.254 µg/mL); in the assay on Cyberlindnera jadinii, 430 µM (≈ 254 µg/mL).
